Source: patent publication US7087248B2, “Pharmaceutical component based on human parathyroid hormone and a pharmaceutical composition for intranasal administration comprising the component” (Daiichi Asubio Pharma Co., Ltd., priority 2000, dated 2006)

The molecules below were run on nasal cavity (assay: Sensory test (1): odor and irritation evoked by nasal spraying). Details: 0.6 w/v % aqueous solution sprayed into the nasal cavity; four healthy normal adult males.
Procedure: As the control, physiological saline was used.
Then, aqueous solutions of various organic acids were prepared, in order to identify the factors responsible for the odor and irritation the preparation evokes when it is applied in the nasal cavity. The organic acid employed included acetic acid, citric acid and tartaric acid; oxalic acid; malic acid; phthalic acid; ascorbic acid; adipic acid; and glycolic acid.
Prepared were 0.1 v/v %, 0.2 v/v %, 0.3 v/v % and 0.6 v/v % aqueous solutions of acetic acid, and 0.6 w/v % aqueous solutions of citric acid, tartaric acid, oxalic acid, malic acid, phthalic acid, ascorbic acid, adipic acid, and glycolic acid. The solution was sprayed into the nasal cavity; and the odor and irritation were assessed in the same manner as above (testers consisting of four healthy normal adult males).
In the same manner as above, the test solution was applied in the nasal cavity, and the odor and irritation evoked thereby were assessed (testers consisting of 12 healthy normal adult males).

Question: For O=C(O)C(=O)O [Oxalic acid], which Irritability is on record?
Answer: ++++

Question: How did the Irritability turn out when O=C(O)CC(O)C(=O)O (stereo not drawn) [Malic acid] was run?
Answer: ++++

Question: For O=C1O[C@H]([C@@H](O)CO)C(O)=C1O [Ascorbic acid], which Irritability is on record?
Answer: the same with that from physiological saline and +

Question: O=C(O)CO [Glycolic acid] was tested. Which Irritability did it give?
Answer: the same with that from physiological saline and +

Same assay, conditions: in vivo

Question: For O=C(O)C(O)C(O)C(=O)O (stereo not drawn) [Tartaric acid], which Irritability is on record?
Answer: ++++

Question: O=C(O)c1ccccc1C(=O)O [Phthalic acid] was tested. Which Irritability did it give?
Answer: +++
